We go through nine molecules from patent publication US20250049806A1, “PHARMACEUTICAL COMPOSITION FOR PROVIDING TREATMENT FOR OR PREVENTING ALPORT SYNDROME” (UBE Corporation, priority 2021, published 2025).

The data set in a line: Transcellular transport test using Caco2 cell. The conditions noted are these: human, Caco-2, apical-to-basolateral (A-to-B), pH=7.4, 10 µM compound. It counts as in vitro ADME. The method, boiled down:
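Caco2 monolayers grown 20–22 days were dosed apically in HBSS/20 mM HEPES pH 7.4 (10 mM DMSO stock diluted 1000-fold, 0.1% DMSO) for 90 min at 37 °C. Basolateral compound was measured by LC-MS/MS and donor concentration by UV-HPLC. Papp (A-to-B) was derived from the slope and graded A–D.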
The term Papp A→B denotes the apparent permeability from the apical to the basolateral side of a cell layer. A high value points to ready permeation. `O=C(O)C[C@H](NC(=O)CNC(=O)c1cc(NC2=NCC(F)CN2)c2c(F)n[nH]c2c1)c1cc(Cl)cc(C(F)(F)F)c1` (stereo partly drawn) [48-(b), (3S)-3-(3-chloro-5-(trifluoromethyl)phenyl)-3-(2-(3-fluoro-4-((5-fluoro-1,4,5,6-tetrahydropyrimidin-2-yl)amino)-1H-indazole-6-carboxamido)acetamido)propanoic acid] displayed a Papp A→B at 90 min, 10 µM greater than 1 ×10⁻⁶ cm/s.
Molecule `O=C(O)C[C@H](NC(=O)CNC(=O)c1cc(NC2=NCC(F)CN2)c2c(Cl)n[nH]c2c1)c1cc(Cl)cc(C(F)(F)F)c1` (stereo partly drawn) [49-(b), (3S)-3-(2-(3-chloro-4-((5-fluoro-1,4,5,6-tetrahydropyrimidin-2-yl)amino)-1H-indazole-6-carboxamido)acetamido)-3-(3-chloro-5-(trifluoromethyl)phenyl)propanoic acid] registered an apical-to-basolateral permeability (Papp A→B) at 90 min, 10 µM of 0.5 to 1 ×10⁻⁶ cm/s.
The result for `O=C(O)C[C@H](NC(=O)CNC(=O)c1cc(NC2=NCC(O)CN2)c2cn[nH]c2c1)c1cc(Cl)cc(C(F)(F)F)c1` (stereo partly drawn) [50-(b), (3S)-3-(3-chloro-5-(trifluoromethyl)phenyl)-3-(2-(4-((5-hydroxy-1,4,5,6-tetrahydropyrimidin-2-yl)amino)-1H-indazole-6-carboxamido)acetamido)propanoic acid] reads greater than 1 ×10⁻⁶ cm/s.
Turning to `O=C(O)C[C@H](NC(=O)CNC(=O)c1cc(NC2=NCCCN2)c2cn[nH]c2c1)c1cc(Cl)cc(C(F)(F)F)c1` [51-(b), (S)-3-(3-chloro-5-(trifluoromethyl)phenyl)-3-(2-(4-((1,4,5,6-tetrahydropyrimidin-2-yl)amino)-1H-indazole-6-carboxamido)acetamido)propanoic acid], the Papp A→B at 90 min, 10 µM was greater than 1 ×10⁻⁶ cm/s.
The same measure for `O=C(O)C[C@H](NC(=O)CNC(=O)c1cc(NC2=NCC(F)CN2)cc2[nH]ncc12)c1cc(Cl)cc(C(F)(F)F)c1` (stereo partly drawn) [52-(b), (3S)-3-(3-chloro-5-(trifluoromethyl)phenyl)-3-(2-(6-((5-fluoro-1,4,5,6-tetrahydropyrimidin-2-yl)amino)-1H-indazole-4-carboxamido)acetamido)propanoic acid]: 0.1 to 0.5 ×10⁻⁶ cm/s; for `O=C(O)C[C@H](NC(=O)CNC(=O)c1cc(NC2=NCC(F)CN2)cc2[nH]ncc12)c1cc(Br)cc(C(F)(F)F)c1` (stereo partly drawn) [53-(b), (3S)-3-(3-bromo-5-(trifluoromethyl)phenyl)-3-(2-(6-((5-fluoro-1,4,5,6-tetrahydropyrimidin-2-yl)amino)-1H-indazole-4-carboxamido)acetamido)propanoic acid]: 0.1 to 0.5 ×10⁻⁶ cm/s; for `O=C(O)C[C@H](NC(=O)CNC(=O)c1cc(NC2=NCC(F)CN2)cc2[nH]ncc12)c1cc(I)cc(C(F)(F)F)c1` (stereo partly drawn) [54-(b), (3S)-3-(2-(6-((5-fluoro-1,4,5,6-tetrahydropyrimidin-2-yl)amino)-1H-indazole-4-carboxamido)acetamido)-3-(3-iodo-5-(trifluoromethyl)phenyl)propanoic acid]: 0.1 to 0.5 ×10⁻⁶ cm/s.
The result for `O=C(O)C[C@H](NC(=O)CNC(=O)c1cc(NC2=NCC(F)CN2)cc2[nH]ncc12)c1ccc(F)c(C(F)(F)F)c1` (stereo partly drawn) [55-(b), (3S)-3-(2-(6-((5-fluoro-1,4,5,6-tetrahydropyrimidin-2-yl)amino)-1H-indazole-4-carboxamido)acetamido)-3-(4-fluoro-3-(trifluoromethyl)phenyl)propanoic acid] reads 0.1 to 0.5 ×10⁻⁶ cm/s; that for `O=C(O)C[C@H](NC(=O)CNC(=O)c1cc(NC2=NCC(F)CN2)cc2[nH]ncc12)c1cccc(C(F)(F)F)c1` (stereo partly drawn) [56-(b), (3S)-3-(2-(6-((5-fluoro-1,4,5,6-tetrahydropyrimidin-2-yl)amino)-1H-indazole-4-carboxamido)acetamido)-3-(3-(trifluoromethyl)phenyl)propanoic acid], 0.1 to 0.5 ×10⁻⁶ cm/s.
